Measured values published in US6858591B2, “Antibiotic AA 896 analogs” (Wyeth Holdings Corporation, priority 2001, dated 2005).
Converted amounts (≈) assume the structure as drawn. Read-outs that look alike come from different tables or passages of the source.

What was measured:
Experiment in all cases: In vitro MIC, broth dilution
Assay type in all cases: cell-based
[1] = tested on: M. morganii GC 4531; details: Morganella morganii, GC4531
[2] = tested on: S. marcescens GC 4077; details: Serratia marcescens, GC4077
[3] = tested on: E. coli GC 3226; details: Escherichia coli, GC3226
[4] = tested on: E. cloacae GC 3783; details: Enterobacter cloacae, GC3783
[5] = tested on: P. aeruginosa GC 2214; details: Pseudomonas aeruginosa, GC2214
[6] = tested on: E. coli GC 4560; details: Escherichia coli, GC4560
[7] = tested on: E. coli GC 4559; details: Escherichia coli, GC4559
[8] = tested on: C. albicans GC 3066; details: Candida albicans, GC3066
[9] = tested on: S. aureus GC 4536; details: Staphylococcus aureus, GC4536
Outline: (§1)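 Serial antibiotic dilutions (64-0.06 μg/ml) in Mueller-Hinton II were challenged with 5×10^5 CFU/ml bacteria. After an 18 hour ambient-air incubation at 35° C, the lowest concentration inhibiting growth was recorded as MIC, following NCCLS recommendations.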

[10] = tested on: E. faecalis GC 2242; details: Enterococcus faecalis, GC2242
Outline: as §1

[11] = tested on: S. aureus GC 2216; details: Staphylococcus aureus, GC2216
Outline: as §1

[12] = tested on: E. faecalis GC 4555; details: Enterococcus faecalis, GC4555
Outline: as §1

[13] = tested on: CNS GC 4547
Outline: as §1

[14] = tested on: S. aureus GC 1131; details: Staphylococcus aureus, GC1131
Outline: as §1

[15] = tested on: CNS GC 4538
Outline: as §1

[16] = tested on: CNS GC 4537
Outline: as §1

[17] = tested on: E. faecalis GC 842; details: Enterococcus faecalis, GC842
Outline: as §1

[18] = tested on: K. pneumoniae GC 4534; details: Klebsiella pneumoniae, GC4534
[19] = tested on: P. aeruginosa GC 4532; details: Pseudomonas aeruginosa, GC4532
[20] = tested on: E. coli GC 2203; details: Escherichia coli, GC2203
[21] = M. morganii GC 4531, read-out: MIC
[22] = S. marcescens GC 4077, read-out: MIC
[23] = E. cloacae GC 3783, read-out: MIC
[24] = P. aeruginosa GC 2214, read-out: MIC
[25] = C. albicans GC 3066, read-out: MIC
[26] = S. aureus GC 4536, read-out: MIC
[27] = E. faecalis GC 2242, read-out: MIC
[28] = S. aureus GC 2216, read-out: MIC
[29] = E. faecalis GC 4555, read-out: MIC
[30] = S. aureus GC 1131, read-out: MIC
[31] = E. faecalis GC 842, read-out: MIC
[32] = K. pneumoniae GC 4534, read-out: MIC
[33] = P. aeruginosa GC 4532, read-out: MIC

## COc1ccc(Cn2c(=O)ccn([C@@H]3OC([C@H](O)[C@H](NCCCNC(=O)[C@@H](CC(C)C)NC(=O)OCc4ccccc4)C(=O)OC(C)(C)C)[C@@H](O[Si](C)(C)C(C)(C)C)[C@H]3O[Si](C)(C)C(C)(C)C)c2=O)cc1 (stereo partly drawn) [Example 56, tert-Butyl (5R,12S)-12-[(R)-[(3R,4R,5R)-3,4-bis{[tert-butyl(dimethyl)silyl]oxy}-5-(3-(4-methoxybenzyl)-2,4-dioxo-3,4-dihydro-1(2H)-pyrimidinyl)tetrahydro-2-furanyl](hydroxy)methyl]-5-isobutyl-3,6-dioxo-1-phenyl-2-oxa-4,7,11-triazatridecan-13-oate]
[1]; [21]
  MIC: 128 µg/mL (≈ 125 µM)
[2]; [22]
  MIC: > 128 µg/mL
[3]; E. coli GC 3226, read-out: MIC
  MIC: > 128 µg/mL
[4]; [23]
  MIC: > 128 µg/mL
[5]; [24]
  MIC: 128 µg/mL (≈ 125 µM)
[6]; E. coli GC 4560, read-out: MIC
  MIC: > 128 µg/mL
[7]; E. coli GC 4559, read-out: MIC
  MIC: > 128 µg/mL
[8]; [25]
  MIC: > 128 µg/mL
[9]; [26]
  MIC: > 128 µg/mL
[10]; [27]
  MIC: 128 µg/mL (≈ 125 µM)
[11]; [28]
  MIC: > 128 µg/mL
[12]; [29]
  MIC: > 128 µg/mL
[13]; CNS GC 4547, read-out: MIC
  MIC: > 128 µg/mL
[14]; [30]
  MIC: > 128 µg/mL
[15]; CNS GC 4538, read-out: MIC
  MIC: > 128 µg/mL
[16]; CNS GC 4537, read-out: MIC
  MIC: > 128 µg/mL
[17]; [31]
  MIC: > 128 µg/mL
[18]; [32]
  MIC: > 128 µg/mL
[19]; [33]
  MIC: 128 µg/mL (≈ 125 µM)
[20]; E. coli GC 2203, read-out: MIC
  MIC: > 128 µg/mL

## CCOC(=O)C(NCCCNC(=O)[C@H](CC(C)C)NC(=O)OCc1ccccc1)C(OC(C)=O)[C@H]1O[C@@H](n2ccc(=O)[nH]c2=O)[C@H](OC(C)=O)[C@@H]1OC(C)=O (stereo partly drawn) [Example 38b, Ethyl (5S)-12-{(R)-(acetyloxy)[(2R,3R,4R,5R)-3,4-bis(acetyloxy)-5-(2,4-dioxo-3,4-dihydro-1(2H)-pyrimidinyl)tetrahydro-2-furanyl]methyl}-5-isobutyl-3,6-dioxo-1-phenyl-2-oxa-4,7,11-triazatridecan-13-oate]
[1]; [21]
  MIC: > 128 µg/mL
[2]; [22]
  MIC: > 128 µg/mL
[3]; E. coli GC 3226, read-out: MIC
  MIC: > 128 µg/mL
[4]; [23]
  MIC: > 128 µg/mL
[5]; [24]
  MIC: > 128 µg/mL
[6]; E. coli GC 4560, read-out: MIC
  MIC: > 128 µg/mL
[7]; E. coli GC 4559, read-out: MIC
  MIC: > 128 µg/mL
[8]; [25]
  MIC: > 128 µg/mL
[9]; [26]
  MIC: > 128 µg/mL
[10]; [27]
  MIC: > 128 µg/mL
[11]; [28]
  MIC: > 128 µg/mL
[12]; [29]
  MIC: > 128 µg/mL
[13]; CNS GC 4547, read-out: MIC
  MIC: > 128 µg/mL
[14]; [30]
  MIC: > 128 µg/mL
[15]; CNS GC 4538, read-out: MIC
  MIC: > 128 µg/mL
[16]; CNS GC 4537, read-out: MIC
  MIC: > 128 µg/mL
[17]; [31]
  MIC: > 128 µg/mL
[18]; [32]
  MIC: > 128 µg/mL
[19]; [33]
  MIC: > 128 µg/mL
[20]; E. coli GC 2203, read-out: MIC
  MIC: > 128 µg/mL

## CCOC(=O)C(NCCCNC(=O)[C@@H](NC(=O)OCc1ccccc1)C(C)O)C(O)[C@H]1O[C@H](n2ccc(=O)[nH]c2=O)[C@H](OC(C)=O)[C@@H]1OC(C)=O (stereo partly drawn) [Example 31a, Ethyl (5S)-12-[(R)-[(2R,3R,4R,5S)-3,4-bis(acetyloxy)-5-(2,4-dioxo-3,4-dihydro-1(2H)-pyrimidinyl)tetrahydro-2-furanyl](hydroxy)methyl]-5-[(1S)-1-hydroxyethyl]-3,6-dioxo-1-phenyl-2-oxa-4,7,11-triazatridecan-13-oate]
[1]; [21]
  MIC: 128 µg/mL (≈ 177 µM)
[2]; [22]
  MIC: 128 µg/mL (≈ 177 µM)
[3]; E. coli GC 3226, read-out: MIC
  MIC: 128 µg/mL (≈ 177 µM)
[4]; [23]
  MIC: 128 µg/mL (≈ 177 µM)
[5]; [24]
  MIC: 128 µg/mL (≈ 177 µM)
[6]; E. coli GC 4560, read-out: MIC
  MIC: 128 µg/mL (≈ 177 µM)
[7]; E. coli GC 4559, read-out: MIC
  MIC: > 128 µg/mL
[8]; [25]
  MIC: 128 µg/mL (≈ 177 µM)
[9]; [26]
  MIC: > 128 µg/mL
[10]; [27]
  MIC: 128 µg/mL (≈ 177 µM)
[11]; [28]
  MIC: > 128 µg/mL
[12]; [29]
  MIC: 128 µg/mL (≈ 177 µM)
[13]; CNS GC 4547, read-out: MIC
  MIC: > 128 µg/mL
[14]; [30]
  MIC: > 128 µg/mL
[15]; CNS GC 4538, read-out: MIC
  MIC: > 128 µg/mL
[16]; CNS GC 4537, read-out: MIC
  MIC: > 128 µg/mL
[17]; [31]
  MIC: 128 µg/mL (≈ 177 µM)
[18]; [32]
  MIC: 128 µg/mL (≈ 177 µM)
[19]; [33]
  MIC: 128 µg/mL (≈ 177 µM)
[20]; E. coli GC 2203, read-out: MIC
  MIC: 128 µg/mL (≈ 177 µM)

## COc1ccc(Cn2c(=O)ccn([C@@H]3OC([C@H](O)[C@H](NCCCNC(=O)[C@H](CC(=O)OCc4ccccc4)NC(=O)OCc4ccccc4)C(=O)OC(C)(C)C)[C@@H](O[Si](C)(C)C(C)(C)C)[C@H]3O[Si](C)(C)C(C)(C)C)c2=O)cc1 (stereo partly drawn) [Example 16, tert-Butyl (5S,12S)-5-[2-(benzyloxy)-2-oxoethyl]-12-[(R)-[(3R,4R,5R)-3,4-bis{[tert-butyl(dimethyl)silyl]oxy}-5-(3-(4-methoxybenzyl)-2,4-dioxo-3,4-dihydro-1(2H)-pyrimidinyl)tetrahydro-2-furanyl](hydroxy)methyl]-3,6-dioxo-1-phenyl-2-oxa-4,7,11-triazatridecan-13-oate]
[1]
  MIC: > 128 µg/mL
[2]
  MIC: > 128 µg/mL
[3]
  MIC: > 128 µg/mL
[4]
  MIC: > 128 µg/mL
[5]
  MIC: > 128 µg/mL
[6]
  MIC: > 128 µg/mL
[7]
  MIC: > 128 µg/mL
[8]
  MIC: 128 µg/mL (≈ 114 µM)
[9]
  MIC: > 128 µg/mL
[10]
  MIC: 128 µg/mL (≈ 114 µM)
[11]
  MIC: > 128 µg/mL
[12]
  MIC: > 128 µg/mL
[13]
  MIC: > 128 µg/mL
[14]
  MIC: > 128 µg/mL
[15]
  MIC: > 128 µg/mL
[16]
  MIC: > 128 µg/mL
[17]
  MIC: > 128 µg/mL
[18]
  MIC: > 128 µg/mL
[19]
  MIC: > 128 µg/mL
[20]
  MIC: > 128 µg/mL
